Measurements: ChEMBL document CHEMBL4840357, “Functionalized Dioxonaphthoimidazoliums: A Redox Cycling Chemotype with Potent Bactericidal Activities against Mycobacterium tuberculosis” (J Med Chem, 2021)
≈ marks a conversion by molar mass, not a printed value. Calls of active or inactive are those of the source. The rule behind the calls is not given here.

Columns and labels:
[1] = test system: Mycobacterium tuberculosis; assay type: functional; conditions: H37Rv ATCC 27294, 168 h, time 7 day
[2] = test system: Mycobacterium tuberculosis; assay type: functional, organism-based; conditions: H37Rv ATCC 27294, time 7.0 day
[3] = test system: Vero; test: Cytotoxicity against African green monkey Vero cells assessed as reduction in cell viability incubated for 48 hrs by CellTiter 96 aqueous one solution reagent based assay; conditions: Chlorocebus sabaeus
[4] = Selectivity index, ratio of IC50 for African green monkey Vero cells to MIC50 for Mycobacterium tuberculosis H37Rv ATCC 27294; assay type: toxicity; conditions: read-out: Selectivity Index
[5] = test system: Mycobacterium tuberculosis; assay type: functional; conditions: H37Rv ATCC 27294, 168 h, time 7 day, read-out: MBC99.9
[6] = Mutagenicity in Salmonella typhimurium TA98 at 1.5 to 64 ug in presence of S9 fraction by ames test; assay type: toxicity, subcellular, Salmonella enterica subsp. enterica serovar Typhimurium; conditions: dose 1.5-64 µg
[7] = Mutagenicity in Salmonella typhimurium TA98 at 1.5 to 64 ug in absence of S9 fraction by ames test; assay type: toxicity, Salmonella enterica subsp. enterica serovar Typhimurium; conditions: in vivo; dose 1.5-64 µg
[8] = Metabolic stability in rat microsomes assessed as half life preincubated for 5 mins followed by NADPH addition and measured upto 45 mins by LC-MS/MS analysis; assay type: ADME, Microsome; conditions: time <=50 min
[9] = Clearance in Swiss albino mouse at 50 mg/kg, po or 1 mg/kg, iv measured upto 24 hrs by HPLC-LCMS analysis; assay type: ADME, organism-based; conditions: in vivo
[10] = Mutagenicity in Salmonella typhimurium TA100 at 1.5 to 64 ug in presence of S9 fraction by ames test; assay type: toxicity, subcellular, Salmonella enterica subsp. enterica serovar Typhimurium; conditions: dose 1.5-64 µg
[11] = Oral bioavailability in Swiss albino mouse at 50 mg/kg measured upto 24 hrs by HPLC-LCMS analysis; assay type: ADME, organism-based; conditions: in vivo
[12] = Half life in Swiss albino mouse at 50 mg/kg, po or 1 mg/kg, iv measured upto 24 hrs by HPLC-LCMS analysis; assay type: ADME, organism-based; conditions: in vivo
[13] = Volume of distribution in Swiss albino mouse at 50 mg/kg, po or 1 mg/kg, iv measured upto 24 hrs by HPLC-LCMS analysis; assay type: ADME, organism-based; conditions: in vivo
[14] = Aqueous solubility of compound at pH 7.4; assay type: physicochemical; conditions: buffer
[15] = Mutagenicity in Salmonella typhimurium TA100 at 1.5 to 64 ug in absence of S9 fraction by ames test; assay type: toxicity, Salmonella enterica subsp. enterica serovar Typhimurium; conditions: in vivo; dose 1.5-64 µg
[16] = Permeability of compound incubated for 16 hrs by PAMPA; assay type: ADME
[17] = test system: Mycolicibacterium smegmatis; test: Induction of NADH oxidation in Mycobacterium smegmatis mc24517 inverted membrane vesicles; assay type: functional, Membrane vesicle
[18] = test system: Mycolicibacterium smegmatis; test: Induction of oxygen consumption in Mycobacterium smegmatis mc24517 inverted membrane vesicles; assay type: functional
[19] = test system: Mycolicibacterium smegmatis; test: Induction of pH gradient dissipation in Mycobacterium smegmatis mc24517 inverted membrane vesicles at 1 to 2 uM; assay type: functional; conditions: Membrane vesicle, dose 1-2 µM
[20] = test system: Mycolicibacterium smegmatis; test: Induction of hydrogen […] production in Mycobacterium smegmatis mc24517 inverted membrane vesicles; assay type: functional

Compound | MIC50 [1] | MIC90 [1] | IC50 [3] | selectivity ratio [4] | MBC [5] | other results
CC(C)/N=c1\cc2n(-c3ccc(Cl)cc3)c3ccccc3nc-2cc1Nc1ccc(Cl)cc1 [CLOFAZIMINE] | 0.2 µM (≈ 0.0947 µg/mL) | 0.8 µM (≈ 0.379 µg/mL) |  |  |  | 
CCCCCC[n+]1c2c(n(CC(C)C)c1C)C(=O)c1ccccc1C2=O | 4 µM | 6 µM |  |  |  | 
CCCCCCCn1c2c([n+](CCCCC)c1C)C(=O)c1ccccc1C2=O.[Br-] | 0.77 µM | 1.2 µM | 20 µM | 26 | 6.3 µM | Activity [2]: Active
NNC(=O)c1ccncc1 [ISONIAZID] | 1.6 µM (≈ 0.219 µg/mL) | 3.2 µM (≈ 0.439 µg/mL) |  |  |  | 
CCCCn1c2c([n+](C3CCC4(CCCCC4)CC3)c1C)C(=O)c1ccccc1C2=O.[Br-] | 0.28 µM | 0.53 µM | 15 µM | 54 | 1.6 µM | Activity [6]: Non-Toxic; Activity [7]: Non-Toxic; half-life [8]: 20 min; clearance [9]: 38 mL/min/kg; Activity [10]: Non-Toxic; bioavailability [11]: 1%; half-life [12]: 420 min; Vd [13]: 27 L/kg; solubility [14]: 118 µM; Activity [15]: Non-Toxic; permeability [16]: Not Active
CCCCCCCCn1c2c([n+](CCCC)c1C)C(=O)c1ccccc1C2=O.[Br-] | 0.82 µM | 1.5 µM | 24 µM | 29 | 6.3 µM | Activity [6]: Non-Toxic; Activity [2]: Active; Activity [7]: Non-Toxic; half-life [8]: 20 min; EC50 [17]: 250 nM; fold change (FC) [18]: 7; clearance [9]: 38 mL/min/kg; Activity [10]: Non-Toxic; bioavailability [11]: 1%; half-life [12]: 420 min; Vd [13]: 27 L/kg; Activity [19]: Active; solubility [14]: 118 µM; Activity [15]: Non-Toxic; fold change (FC) [20]: 4; permeability [16]: Not Active
CCCCCCn1c2c([n+](C3CCC4(CCCCC4)CC3)c1C)C(=O)c1ccccc1C2=O | 0.3 µM | 0.4 µM | 6.3 µM | 21 | 1.6 µM | 
CCCCCCCCn1c2c([n+](C3CCC4(CCCCC4)CC3)c1C)C(=O)c1ccccc1C2=O | 0.3 µM | 0.4 µM | 5 µM | 17 | 1.2 µM | 
CCCCCCn1c2c([n+](CCCCCC)c1C)C(=O)c1ccccc1C2=O | 0.67 µM | 1.5 µM | 14 µM | 21 | 6.3 µM | 
CCCCCCCC[n+]1c2c(n(CC(C)C)c1C)C(=O)c1ccccc1C2=O | 2 µM | 3 µM |  |  |  | 
